According to patent publication US5137872A, “Growth hormone-releasing factor analogs” (Pitman-Moore, Inc., priority 1989, dated 1992):

System: serum ovine somatotropin (oST)
Test: Serum ovine somatotropin (oST) by RIA after subcutaneous injection of GRF compounds in lambs
Format: in vivo
Description: Whether lambs (40-45 kg) were injected subcutaneously with the following GRF compounds in a phosphate buffered saline vehicle (pH 7):
10.0 ug/kg recombinant native hGRF (rhGRF)
5.0 ug/kg synthetic native hGRF (shGRF)
5.0 ug/kg [Pro^0, Gly^15, Met^27 ]-hGRF(1-44)-NH2 (aGRF)
There were 4 animals per treatment group and each treatment was repeated 3 times to give a total of 12 samples/time point/treatment. The animals were bled at time 0, 10, 20, 30, 60 and 120 minutes after injection and analyzed for serum ovine somatotropin (oST) by radioimmunoassay (RIA).
Example 4 was repeated using the following treatments:
20.0 ug/kg recombinant native hGRF (rhGRF)
10.0 ug/kg synthetic native hGRF (shGRF)

[1] = 5.0 ug/kg subcutaneous, FIG. 1 (Example 4)
[2] = 10.0 ug/kg subcutaneous, FIG. 2 (Example 5)

Molecule | serum oST concentration at 120 minutes post injection versus time 0 [1] | serum oST concentration at 120 minutes post injection versus time 0 [2] | duration of in vivo biological activity [1] | duration of in vivo bioactivity compared to native GRF [2]
CC[C@H](C)[C@H](NC(=O)[C@H](C)NC(=O)[C@H](CC(=O)O)NC(=O)[C@H](C)NC(=O)[C@@H](N)Cc1ccc(O)cc1)C(=O)N[C@@H](Cc1ccccc1)C(=O)N[C@H](C(=O)N[C@@H](CC(N)=O)C(=O)N[C@@H](CO)C(=O)N[C@@H](Cc1ccc(O)cc1)C(=O)N[C@@H](CCCNC(=N)N)C(=O)N[C@@H](CCCCN)C(=O)N[C@H](C(=O)N[C@@H](CC(C)C)C(=O)NCC(=O)N[C@@H](CCC(N)=O)C(=O)N[C@@H](CC(C)C)C(=O)N[C@@H](CO)C(=O)N[C@@H](C)C(=O)N[C@@H](CCCNC(=N)N)C(=O)N[C@@H](CCCCN)C(=O)N[C@@H](CC(C)C)C(=O)N[C@@H](CC(C)C)C(=O)N[C@@H](CCC(N)=O)C(=O)N[C@@H](CC(=O)O)C(=O)N[C@H](C(=O)N[C@@H](CCSC)C(=O)N[C@@H](CO)C(=O)N[C@@H](CCCNC(=N)N)C(=O)N[C@@H](CCC(N)=O)C(=O)N[C@@H](CCC(N)=O)C(=O)NCC(=O)N[C@@H](CCC(=O)O)C(=O)N[C@@H](CO)C(=O)N[C@@H](CC(N)=O)C(=O)N[C@@H](CCC(N)=O)C(=O)N[C@@H](CCC(=O)O)C(=O)N[C@@H](CCCNC(=N)N)C(=O)NCC(=O)N[C@@H](C)C(=O)N[C@@H](CCCNC(=N)N)C(=O)N[C@@H](C)C(=O)N[C@@H](CCCNC(=N)N)C(=O)N[C@@H](CC(C)C)C(N)=O)[C@@H](C)CC)C(C)C)[C@@H](C)O [native synthetic hGRF, reference compound] | returned to baseline serum oST levels | returned to baseline serum oST levels |  | 
[Pro^0, Gly^15, Met^27 ]-hGRF(1-44)-NH2 | oST concentrations greater than those at time 0 | oST concentrations greater than those at time 0 | prolonged in vivo biological activity | prolonged in vivo bioactivity
